The source of these data is publication PMC8754229 (Journal of Virology, 2022).

The conditions of series [1]: statement in Discussion, no test described, ref not given; cited from earlier work.
Series [2] addresses SARS-CoV-2 M^pro (Severe acute respiratory syndrome coronavirus 2, UniProt P0DTD1). In kind it is biochemical.

As to `CC(C)=CC[C@@H](O)C1=CC(=O)c2c(O)ccc(O)c2C1=O` [Shikonin], the “Cytotoxicity (in words)” value in series [1] is listed as “strong cytotoxicity”.
Consider `CC(=O)O[C@H]1[C@H](OCCc2ccc(O)c(O)c2)O[C@H](CO[C@@H]2O[C@H](CO)[C@@H](O)[C@H](O)[C@H]2O)[C@@H](OC(=O)/C=C/c2ccc(O)c(O)c2)[C@@H]1OC[C@@H]1O[C@@H](C)[C@H](O)[C@@H](O)[C@H]1O` [tubuloside A], for which, in series [2], the “Inhibition against M^pro (in words)” value was “none of them showed potent inhibition”.
On the same count and under the same terms, with maltopentaose the entry was “none of them showed potent inhibition”.
